In US10836732B2, “Compounds for combating arthropods” (priority 2013, dated 2020):

Key:
Spodoptera frugiperda = Spodoptera frugiperda - spray test; type: in vivo; details: maize leaf discs, after 7 days
Method: (§1) Solvent: 78.0 parts by weight of acetone
(§2) • 1.5 parts by weight of dimethylformamide Emulsifier: alkylaryl polyglycol ether
(§3) To produce an appropriate active ingredient formulation, 1 part by weight of active ingredient is dissolved using the specified parts by weight of solvent and made up with water containing an emulsifier concentration of 1000 ppm until the desired concentration is attained. To produce further test concentrations, the preparation is diluted with emulsifier-containing water.
Leaf discs of maize (Zea mays) are sprayed with an active ingredient formulation of the desired concentration and, after drying, populated with caterpillars of the armyworm (Spodoptera frugiperda).
After 7 days, efficacy in % is determined. 100% means that all the caterpillars have been killed; 0% means that no caterpillars have been killed.

Myzus persicae = Myzus persicae - spray test; type: in vivo; details: 500 g/ha, Chinese cabbage leaf discs, after 6 days
Method: Solvent: 78 parts by weight of acetone
as §2, §3
Discs of Chinese cabbage leaves (Brassica pekinensis) infested by all stages of the green peach aphid (Myzus persicae) are sprayed with an active ingredient formulation of the desired concentration.
After 6 days, efficacy in % is determined. 100% means that all the aphids have been killed; 0% means that none of the aphids have been killed.

Phaedon cochleariae = Phaedon cochleariae - spray test; type: in vivo; details: Chinese cabbage leaf discs, after 7 days
Method: as §1, §2, §3
Discs of Chinese cabbage leaves (Brassica pekinensis) are sprayed with an active ingredient formulation of the desired concentration and, after drying, populated with larvae of the mustard beetle (Phaedon cochleariae).
After 7 days, efficacy in % is determined 100% means that all the beetle larvae have been killed; 0% means that no beetle larvae have been killed.

Amblyomma hebraeum = test: Amblyomma hebaraeum - test (tick nymphs, immersion); type: in vivo; details: 100 ppm, tick nymphs immersed one minute, after 42 days
Method: (§4) Solvent: dimethyl sulphoxide
(§5) To produce an appropriate active ingredient formulation, 10 mg of active ingredient are mixed with 0.5 ml of dimethyl sulphoxide, and the concentrate is diluted with water to the desired concentration.
Tick nymphs (Amblyomma hebraeum) are placed into perforated plastic beakers and immersed in the desired concentration for one minute. The ticks are transferred on filter paper into a Petri dish and stored in a climate-controlled cabinet.
After 42 days, the kill in % is determined 100% means that all of the ticks have been killed; 0% means that none of the ticks have been killed.

[1] = system: Boophilus microplus Parkhurst strain, SP-resistant; test: Boophilus microplus - dip test; type: in vivo; details: 100 ppm, adult engorged female cattle ticks, after 7 days
Method: Test animals: cattle ticks (Boophilus microplus) Parkhurst strain, SP-resistant
as §4
10 mg of active ingredient are dissolved in 0.5 ml of dimethyl sulphoxide. For the purpose of producing a suitable formulation, the active ingredient solution is diluted with water to the concentration desired in each case.
This active ingredient formulation is pipetted into tubes. 8-10 adult engorged female cattle ticks (Boophilus microplus) are transferred into a further tube with holes. The tube is immersed into the active ingredient formulation, and all the ticks are completely wetted. After the liquid has run out, the ticks are transferred on filter discs into plastic dishes and stored in a climate-controlled room.
(§6) Efficacy is assessed after 7 days by laying of fertile eggs. Eggs which are not visibly fertile are stored in a climate-controlled cabinet until the larvae hatch after about 42 days. An efficacy of 100% means that none of the ticks has laid any fertile eggs; 0% means that all the eggs are fertile.

Ctenocephalides felis [2] = test: Ctenocephalides felis - oral test; type: in vivo; details: 100 ppm in citrated cattle blood, adult cat fleas, after 2 days
Method: as §4
For the purpose of producing an appropriate active ingredient formulation, 10 mg of active ingredient are mixed with 0.5 ml of dimethyl sulphoxide. Dilution with citrated cattle blood gives the desired concentration.
About 20 unfed adult cat fleas (Ctenocephalides felis) are placed into a chamber which is closed at the top and bottom with gauze. A metal cylinder whose bottom end is closed with parafilm is placed onto the chamber. The cylinder contains the blood/active ingredient preparation, which can be imbibed by the fleas through the parafilm membrane.
After 2 days, the kill in % is determined 100% means that all of the fleas have been killed; 0% means that none of the fleas have been killed.

Boophilus microplus = Boophilus microplus - injection test; type: in vivo; details: 20 μg/animal, injected into engorged adult female cattle ticks, after 7 days
Method: as §4
To produce an appropriate active ingredient formulation, 10 mg of active ingredient are mixed with 0.5 ml of solvent and the concentrate is diluted with solvent to the desired concentration.
1 μl of the active ingredient solution is injected into the abdomen of 5 engorged adult female cattle ticks (Boophilus microplus). The animals are transferred into dishes and kept in a climate-controlled room.
as §6

Tetranychus urticae = Tetranychus urticae - spray test, OP-resistant; type: in vivo; details: bean leaf discs, after 6 days
Method: as §1, §2, §3
Discs of bean leaves (Phaseolus vulgaris) infested by all stages of the greenhouse red spider mite (Tetranychus urticae) are sprayed with an active ingredient formulation of the desired concentration.
After 6 days, efficacy in % is determined 100% means that all the spider mites have been killed; 0% means that none of the spider mites have been killed.

Lucilia cuprina = Lucilia cuprina - test; type: in vivo; details: 100 ppm, L1 larvae, after 2 days
Method: as §4, §5
About 20 L1 larvae of the Australian sheep blowfly (Lucilia cuprina) are transferred into a test vessel containing minced horsemeat and the active ingredient preparation of the desired concentration.
After 2 days, the kill in % is determined 100% means that all the larvae have been killed; 0% means that none of the larvae have been killed.

[3] = logP by HPLC on reversed-phase column (C18), EEC Directive 79/831 Annex V.A8; type: physicochemical
Musca domestica = Musca domestica - test; type: in vivo; details: 100 ppm, adult houseflies, after 2 days
Method: as §4, §5
Vessels containing a sponge treated with sugar solution and the active ingredient formulation of the desired concentration are populated with 10 adult houseflies (Musca domestica).
After 2 days, the kill in % is determined 100% means that all of the flies have been killed; 0% means that none of the flies have been killed.

Rhipicephalus sanguineus = Rhipicephalus sanguineus - in vitro contact tests with adult brown dog ticks; type: in vivo; details: 5 μg/cm^2, adult dog ticks, after 48 h
Method: For the coating of the test tubes, 9 mg of active ingredient are first dissolved in 1 ml of acetone p.a. and then diluted to the desired concentration with acetone p.a. 250 μl of the solution are distributed homogeneously on the inner walls and base of a 25 ml test tube by turning and rocking on an orbital shaker (rocking rotation at 30 rpm for 2 h). With 900 ppm active ingredient solution and internal surface 44.7 cm^2, given homogeneous distribution, an area-based dose of 5 μg/cm^2 is achieved.
After the solvent has evaporated off, the tubes are populated with 5-10 adult dog ticks (Rhipicephalus sanguineus), sealed with a perforated plastic lid and incubated in a horizontal position in the dark at room temperature and ambient humidity. After 48 h, efficacy is determined To this end, the ticks are knocked to the floor of the tube and incubated on a hotplate at 45-50° C. for not more than 5 min Ticks which remain motionless on the floor or move in such an uncoordinated manner that they are unable to deliberately avoid the heat by climbing upwards are considered to be dead or moribund.
An efficacy of 100% means that all the ticks were dead or moribund. 0% efficacy means that none of the ticks had been harmed.

Ctenocephalides felis [4] = test: Ctenocephalides felis - in vitro contact tests with adult cat fleas; type: in vivo; details: 5 μg/cm^2, adult cat fleas, after 48 h
Method: For the coating of the test tubes, 9 mg of active ingredient are first dissolved in 1 ml of acetone p.a. and then diluted to the desired concentration with acetone p.a. 250 μl of the solution are distributed homogeneously on the inner walls and base of a 25 ml test tube by turning and rocking on an orbital shaker (rocking rotation at 30 rpm for 2 h). With 900 ppm active ingredient solution and internal surface area 44.7 cm^2, given homogeneous distribution, an area-based dose of 5 μg/cm^2 is achieved.
After the solvent has evaporated off, the tubes are populated with 5-10 adult cat fleas (Ctenocephalides felis), sealed with a perforated plastic lid and incubated in a horizontal position at room temperature and ambient humidity. After 48 h, efficacy is determined. To this end, the test tubes are stood upright and the fleas are knocked to the base of the tube. Fleas which remain motionless at the base or move in an uncoordinated manner are considered to be dead or moribund.
100% efficacy means that all the fleas were dead or moribund. 0% efficacy means that no fleas were harmed.

[5] = system: Anopheles funestus strain FUMOZ-R; test: Anopheles test (ANPHFU surface treatment); type: in vivo; details: 20 mg/m^2, glazed tile, exposure 30 minutes, 24 hours after contact
Method: Solvent: acetone+2000 ppm rapeseed oil methyl ester (RME)
To produce an appropriate active ingredient formulation, the active ingredient is dissolved in the solvent (2 mg/ml). The active ingredient formulation is pipetted onto a glazed tile and, after it has dried off, adult mosquitoes of the species Anopheles funestus strain FUMOZ-R (Hunt et al., Med Vet Entomol. 2005 September; 19(3):271-5) are placed onto the treated tile. The exposure time is 30 minutes.
24 hours after contact with the treated surface, mortality in % is determined 100% means that all mosquitoes have been killed; 0% means that none of the mosquitoes have been killed.

| SMILES | efficacy (caterpillars killed) (Spodoptera frugiperda; 500 g/ha) [%] | efficacy (aphids killed) (Myzus persicae) [%] | efficacy (beetle larvae killed) (Phaedon cochleariae; 500 g/ha) [%] | efficacy (kill in %) (Amblyomma hebraeum) [%] | efficacy (no fertile eggs laid) [1] [%] | efficacy (kill in %) (Ctenocephalides felis [2]) [%] | efficacy (no fertile eggs laid) (Boophilus microplus) [%] | efficacy (spider mites killed) (Tetranychus urticae; 500 g/ha) [%] | efficacy (caterpillars killed) (Spodoptera frugiperda; 100 g/ha) [%] | efficacy (kill in %) (Lucilia cuprina) [%] | efficacy (beetle larvae killed) (Phaedon cochleariae; 100 g/ha) [%] | logP [3] | efficacy (kill in %) (Musca domestica) [%] | efficacy (spider mites killed) (Tetranychus urticae; 100 g/ha) [%] | efficacy (dead or moribund) (Rhipicephalus sanguineus) [%] | efficacy (dead or moribund) (Ctenocephalides felis [4]) [%] | efficacy (mortality in %) [5] |
| --- | --- | --- | --- | --- | --- | --- | --- | --- | --- | --- | --- | --- | --- | --- | --- | --- | --- |
| Cc1cc(C(F)(C(F)(F)F)C(F)(F)F)cc(C)c1-c1cn(-c2cnc(Cl)c(C(=O)NC3(C#N)CC3)c2)nn1 [I-T48-8] | 100 | 100 | 100 | 100 | 100 | 100 | 100 | 100 | – | – | – | – | – | – | – | – | – |
| Cc1cc(C(F)(C(F)(F)F)C(F)(F)F)cc(C)c1-c1cn(-c2ccc(Cl)c(C(=O)NCC(F)(F)F)c2)nn1 [I-T48-5] | – | – | – | – | – | 100 | 100 | – | 100 | 100 | 100 | 4.5 | 100 | – | – | – | – |
| Cc1cc(C(F)(C(F)(F)F)C(F)(F)F)cc(C)c1-c1cn(-c2ccc(Cl)c(C(=O)NC3CSC3)c2)nn1 [I-T48-6] | – | – | – | – | – | 100 | 100 | – | 100 | 100 | 100 | 4.5 | 100 | 100 | – | – | – |
| O=C(NC1CC1)c1cc(-n2cc(-c3c(Cl)cc(C(F)(C(F)(F)F)C(F)(F)F)cc3Cl)nn2)ccc1Cl [I-T48-3] | – | – | – | 90 | 90 | 100 | 100 | – | 100 | 100 | 100 | 4.3 | 100 | 100 | 100 | 100 | – |
| N#CC1(NC(=O)c2cc(-n3cc(-c4c(Cl)cc(C(F)(C(F)(F)F)C(F)(F)F)cc4Cl)nn3)ccc2Cl)CC1 [I-T48-4] | – | – | – | – | – | 100 | 100 | – | 100 | 100 | 100 | 4.2 | 100 | 100 | 100 | 100 | 90-100% |
| Cc1cc(C(F)(C(F)(F)F)C(F)(F)F)cc(C)c1-c1cn(-c2cnc(Cl)c(C(=O)NC3CC3)c2)nn1 [I-T48-7] | 100 | 100 | 100 | 100 | 100 | 100 | 100 | 100 | – | 100 | – | – | 100 | – | 100 | – | – |
